Data as given in patent US12442042B2, “Epigenomic profiling reveals the somatic promoter landscape of primary gastric adenocarcinoma” (AGENCY FOR SCIENCE, TECHNOLOGY AND RESEARCH, priority 2016, dated 2025).

How the values were obtained:
IM95 GC cells = test: EZH2 inhibition: RNA-seq of GSK126-treated IM95 cells at promoter loci; format: cell-based, human
Method: IM95 were treated with GSK126 (Selleck, USA), a selective EZH2 inhibitor, at a concentration of 5 μM. Cell proliferation was monitored in 96-well plates post-treatment with GSK126 using the CellTiter-Glo® Luminescent Cell Viability Assay (Promega) for three independent experiments. For RNA-seq analysis, total RNA was extracted using the Qiagen RNAeasy mini kit according to manufacturer's instructions. Cells were treated with GSK126 (Selleck, USA; dissolved in DMSO) at a concentration of 5 μM. Control cells were treated with the same concentration of DMSO (0.1%). RNAseq differential analysis for promoter loci was carried out using edgeR on read counts mapping to H3K4me3 regions estimated using featureCounts. RNAseq gene level differential analysis was performed using cuffdiff2.2.1.

AGS cells [1] = test: Transwell migration assay; format: cell-based; details: KRAS mutated AGS cells transfected with isoform, 24 h
Method: (§1) To determine cell migratory capacities, RASA3 wild type and variant transfected AGS and GES1, SNU1967 and AGS, and siRNA treated NCC24 cells were tested using Corning Costar 6.5 mm Transwell with 8.0 μm Pore Polycarbonate Membrane Inserts (3422, Corning, NY, USA). 2.5×10^4 AGS cells and 2×10^4 GES1 cells, 3×10^4 SNU1967 cells and 5×10^4 NCC24 cells were suspended in 0.1 ml serum-free RPMI medium and added to the top of the Transwell insert. 0.6 ml RPMI containing 10% FBS was added into the bottom well as a chemoattractant. After incubation for 24 h at 37° C. in a 5% CO2 incubator, cells were fixed with 3.7% formaldehyde and permeabilized with 100% methanol. Non-migrated cells were scraped off with cotton swabs from the upper surface of the membrane. Migrated cells were stained with 0.5% crystal violet. The number of migrated cells were represented as the total area of migrated cells vs the area of transwell membrane calculated using ImageJ software. For cell invasion assays, the above Transwell inserts were coated with 0.1 ml (300 μg/mL) Corning Matrigel matrix (354234, Corning, NY, USA) for 2 to 4 h at 37° C. before use. All subsequent steps were identical to the migration assay protocol.

GES1 cells [2] = test: Transwell migration assay; format: cell-based; details: GES1 cells transfected with isoform, 24 h
Method: as §1

RAS = test: RAS-GTP assay (Active RAS pull-down) in GES1 cells; format: cell-based; details: vs empty vector or RASA3 SomT
Method: GES1 cells were transfected with either RASA3 CanT, RASA3 SomT or empty vector for 48 hours. Cells were harvested for protein in FBS containing media or subjected to over-night serum starvation followed by serum stimulation for 30 minutes prior to harvest. Proteins were extracted using ice-cold lysis buffer (Active RAS Pull-down and Detection Kit) containing protease inhibitor cocktail (Nacalai Tesque). Active RAS fraction was obtained using the Active RAS Pull-down and Detection Kit (Thermo Fisher Scientific) according to manufacturer's instructions. Total RAS was measured in corresponding whole cell protein lysates. β-actin was used as a loading control. Protein concentrations were determined using the Pierce BCA protein assay (Thermo Scientific). SDS sample buffer was added to the lysates and boiled at 100° C. for 5 minutes. Samples were loaded in each well of a 4-15% Mini-Protean TGX gel (Biorad) and transferred to a PVDF membrane using a semi-dry blotting system (Biorad). Membranes were probed with anti-RAS (1 in 200 dilution, supplied in Active RAS Pull-down and Detection Kit), or B-actin (1 in 5000 dilution, Sigma A5316) in 5% milk-PBST at 4° C. over-night. Secondary anti-mouse antibody (LNA931, Amersham) was used at a dilution of 1 in 2000 for 1 hour at room temperature. […]

HLA-A*02:06 T cells = test: IFN-γ assay: primed T cells co-cultured with AGS cells expressing RASA3 isoforms (ELISA); format: cell-based, human; details: T cells primed with the isoform, co-cultured with AGS cells expressing the same isoform, two days
Method: To test the immunogenicity of the RASA3 WT and Variant protein sequences, CD14+ monocytes were isolated from a HLA-A*02:06 donor by positive selection using magnetic beads (Miltenyi, Germany). Dendritic cells were generated by GM-CSF (1000 IU/ml) and IL-4 (400 IU/ml), and further matured by TNF (10 ng/ml), IL-1b (10 ng/ml), IL-6 (10 ng/ml) (Miltenyi, Germany) and PGE2 (1 μg/ml) (Stemcell Technologies, Canada) for 24 hours. The DCs were then primed with AGS cell lysates expressing WT RASA3 or Variant RASA3 for 24 hours, before being co-cultured with T cells from the same donor at the ratio of 1:5. After 5 days of co-culture with DC, T cells were isolated by positive selection using CD3 magnetic beads (Miltenyi, Germany) and co-cultured with AGS cells expressing either WT or Variant RASA3 at the ratio of 20:1 for two days. Supernatants were harvested and IFN-γ release was measured by ELISA (R&D, USA).

SNU1967 cells [3] = test: Cell proliferation assay (WST-8); format: cell-based; details: 24 to 120 hours post-transfection
Method: (§2) 3×10^3 GES1, SNU1967 and AGS cells were plated into 96-well plates in media with 10% fetal bovine serum and left overnight to attach. The next day (Day 0), cells were transiently transfected with wild-type and variant RASA3 constructs using Lipofectamine 3000 (Thermo Scientific). The amount of the constructs was 40 ng/well for AGS and 100 ng/well for GES1 and SNU1967 cells. Cell proliferation was measured by the WST-8 assay (Cell Counting Kit-8, Dojindo) from 24 to 120 hours post-transfection. 10 μL of WST-8 solution was added per well and the absorbance reading was measured at 450 nm after 2 hours of incubation in a humidified incubator.

AGS cells [4] = test: Cell proliferation assay (WST-8); format: cell-based; details: 24 to 120 hours post-transfection
Method: as §2

GES1 cells [5] = test: Cell proliferation assay (WST-8); format: cell-based; details: 24 to 120 hours post-transfection
Method: as §2

SNU1967 cells [6] = test: Matrigel invasion assay; format: cell-based; details: SNU1967 cells transfected with isoform
Method: as §1

GES1 cells [7] = test: Matrigel invasion assay; format: cell-based; details: GES1 cells transfected with isoform
Method: as §1

Molecule: CC[C@H](C)n1cc(C)c2c(C(=O)NCc3c(C)cc(C)[nH]c3=O)cc(-c3ccc(N4CCNCC4)nc3)cc21 [GSK126]
- deregulated promoters mapping to somatic promoters lost in primary GC that were reactivated (IM95 GC cells; 78/87, FC>=2, qval<0.1): 89.6%
- gene sets of genes upregulated upon EZH2 inhibition (IM95 GC cells; Day 6 and 9, RNA-seq): enriched in previously identified PRC2 target gene sets
- OR, somatic promoters vs all GSK126 regulated genes (IM95 GC cells; Fisher Test, P<0.001): 9.21
- OR, somatic promoters vs unaltered promoters changing expression (IM95 GC cells; Fisher Test, P<0.001): 1.46
- promoters deregulated in total (IM95 GC cells; GSK126 5 μM, Day 6 and 9, RNA-seq): 2134
- proportion of somatic promoters deregulated (IM95 GC cells; GSK126 5 μM, RNA-seq): 12.8%
- proportion of unaltered promoters exhibiting deregulation (IM95 GC cells; GSK126 5 μM, RNA-seq): 8.8%
- somatic promoters deregulated (of 1959 promoters exhibiting somatic alterations in primary GCs) (IM95 GC cells; GSK126 5 μM, RNA-seq): 251
- total proportion of genes (as defined by Gencode) regulated (IM95 GC cells; GSK126 5 μM, RNA-seq): 1.5%
- expression at PSCA TSS (lost somatic promoter) (IM95 GC cells; day 6 (D6) and Day 9 (D9)): Gain of expression
- expression at SLC9A9 TSS (lost somatic promoter) (IM95 GC cells; day 6 (D6) and Day 9 (D9)): Gain of expression
- expression at alternative promoter ESRRG (lost promoter activity) (IM95 GC cells; day 6 (D6) and Day 9 (D9)): Gain of expression

B1: RASA3 CanT: canonical full-length RASA3 protein isoform, transfected construct (protein, UniProt Q14644 1-834, looked up)
chain: MAVEDEGLRVFQSVKIKIGEAKNLPSYPGPSKMRDCYCTVNLDQEEVFRTKIVEKSLCPFYGEDFYCEIPRSFRHLSFYIFDRDVFRRDSIIGKVAIQKEDLQKYHNRDTWFQLQHVDADSEVQGKVHLELRLSEVITDTGVVCHKLATRIVECQGLPIVNGQCDPYATVTLAGPFRSEAKKTKVKRKTNNPQFDEVFYFEVTRPCSYSKKSHFDFEEEDVDKLEIRVDLWNASNLKFGDEFLGELRIPLKVLRQSSSYEAWYFLQPRDNGSKSLKPDDLGSLRLNVVYTEDHVFSSDYYSPLRDLLLKSADVEPVSASAAHILGEVCREKQEAAVPLVRLFLHYGRVVPFISAIASAEVKRTQDPNTIFRGNSLASKCIDETMKLAGMHYLHVTLKPAIEEICQSHKPCEIDPVKLKDGENLENNMENLRQYVDRVFHAITESGVSCPTVMCDIFFSLREAAAKRFQDDPDVRYTAVSSFIFLRFFAPAILSPNLFQLTPHHTDPQTSRTLTLISKTVQTLGSLSKSKSASFKESYMATFYEFFNEQKYADAVKNFLDLISSSGRRDPKSVEQPIVLKEGFMIKRAQGRKRFGMKNFKKRWFRLTNHEFTYHKSKGDQPLYSIPIENILAVEKLEEESFKMKNMFQVIQPERALYIQANNCVEAKDWIDILTKVSQCNQKRLTVYHPSAYLSGHWLCCRAPSDSAPGCSPCTGGLPANIQLDIDGDRETERIYSLFNLYMSKLEKMQEACGSKSVYDGPEQEEYSTFVIDDPQETYKTLKQVIAGVGALEQEHAQYKRDKFKKTKYGSQEHPIGDKSFQNYIRQQSETSTHSI
modifications: full-length
notes: canonical full-length RASA3 protein isoform, transfected construct
- migration (AGS cells [1]): potently suppressed
- migration (AGS cells [1]; listed as RASA3 WT): more potent migration suppression
- migration (GES1 cells [2]): did not
- levels of active GTP-bound RAS (RAS): lower levels of active GTP-bound RAS
- IFNγ release from primed T cells (HLA-A*02:06 T cells): significantly more
- cellular proliferation rate (SNU1967 cells [3]): did not alter
- cellular proliferation rate (AGS cells [4]): did not alter
- cellular proliferation rate (GES1 cells [5]): did not alter
- invasion (SNU1967 cells [6]): significantly suppressed
- invasion (GES1 cells [7]): did not
